Source: publication PMC9612231, “Antileishmanial Anthracene Endoperoxides: Efficacy In Vitro, Mechanisms and Structure-Activity Relationships” (Molecules, 2022)

Key:
[1] = test system: LtP; assay: Cellular oxygen consumption of LtP (OxoPlates); type: cell-based, Leishmania tarentolae; conditions: 200 µM compound, 140 × 10^6 cells/mL
Text: (§1) The experimental data so far indicate that in more complex EP not only the endoperoxyl group contributes to its pharmacological actions. Therefore, mitochondria present in the parasites but also in the host cells could be either a trigger for activating pharmacological actions of these compounds or a target of EP-derived radicals generated at other sites in the cell. In a subsequent experiment, we tested the influence of AcEP and non-endoperoxidic analogs (Ac) on the mitochondrial oxygen consumption in LtP and J774 macrophages (Figure 9).
(§2) Oxygen consumption rates of LtP in complete BHI culture medium and J774 in PBS-gluc treated with AcEPs were measured using round-bottomed OxoPlates (OP96U, Precision Sensing GmbH, Regensburg, Germany). […] Then, the fluorescence of both calibration media was measured at a microplate reader (Perkin Elmer EnSpire, Rodgau, Germany) in a dual kinetic mode, using an excitation wavelength of 540 nm for both dyes and emission wavelengths of 650 nm for the indicator dye and 590 nm for the reference dye. The ratio of both fluorescence intensities (IR) was calculated for each well and averaged giving the two calibration constants k0 (oxygen-free) or k100 (air-saturated). […] Both fluorescence intensities of each well were determined in 5 min intervals over up to 40 min. Each compound was measured in quadruplicates. […]

[2] = test system: J774 macrophages; assay: Cellular oxygen consumption of J774 cells (OxoPlates); type: cell-based, murine; conditions: 200 µM compound, 2 × 10^6 cells/mL
Text: as §1, §2

[3] = test system: LtP; assay: Superoxide radical formation in LtP by the EPR/CMH method; type: cell-based, Leishmania tarentolae; conditions: 20 min at 25 °C; for Superoxide formation in LtP (CMH oxidation), in words: 100 µM compound
Text: Since mitochondrial inhibition can be triggered by secondary damage in the respective cells, for example, by superoxide radicals, we studied the formation of superoxide radicals in LtP by the EPR/hydroxyl-3-methoxycarbonyl-2,2,5,5-tetramethylpyrrolidine hydrochloride (CMH) method (Figure 10). […] In the presence of antimycin A (AA, an inhibitor of mitochondrial complex III), the superoxide radical formation in LtP is increased by more than 150% (Figure 11).
An aliquot of the LtP cell culture equivalent to 5 × 10^8 LtP was transferred into a 1.5 mL Eppendorf tube and was centrifuged (Hettich Universal 16, 20 °C, 2000× g, 10 min). After removal of the supernatant, the cell pellet was re-suspended in 1 mL PBS and centrifuged again and the supernatant discarded. The cell pellet was re-suspended in 1 mL of PBS with 15 mM glucose (PBS-gluc), giving a final cell density of 5 × 10^8 LtP/mL. AcEP/Ac compounds were added (100 µM final concentration) to aliquots of 50 µL of this cell suspension in 1.5 mL Eppendorf tubes and incubated for 20 min at 25 °C. Then, DFO (100 μM final concentration), DTPA (25 μM final concentration), and detection agent CMH (400 µM final concentration) were added to the aliquots before measurement. Samples containing only buffer (PBS-gluc) or only LtP (in PBS-gluc) were used as negative controls, while samples containing 20 μM AA were used as positive control. An aliquot of 17 µL suspension was aspirated into a PTFE tube (ø 0.7 mm). The tube was folded into a quartz tube (ø 4 mm outer diameter) and then transferred to the MD5 resonator of the EPR spectrometer. The measurement was started using following parameters: microwave frequency 9.682 GHz; microwave power 20 mW, modulation frequency 100 kHz; modulation amplitude 1 G; time constant 0.82 s; center field 3448 G; sweep width 100 G; scan time 84 s; attenuation 70 dB; separate scans 5. Based on a calibration curve with carboxy proxyl (CP^●) changes of the peak-to-peak intensity of CM^● spectra were converted to CMH oxidation rates (superoxide radical generation).

Structure (SMILES): CC(C)(C)c1ccc2c(c1)C1(c3cccnc3)OOC2(c2cccnc2)c2ccccc21 (stereo not drawn) [mPyBuAcEP]
- Inhibition of mitochondrial oxygen consumption in LtP [1]: interfered strongly
- Inhibition of mitochondrial oxygen consumption in J774 macrophages [2]: more moderate
- Increase of superoxide formation in LtP ([3]; 100 µM Ac/AcEP): more than 70%
- Superoxide formation in LtP (CMH oxidation), in words [3]: most effective in boosting the superoxide production

Structure (SMILES): CC(C)(C)c1ccc2c(-c3cccnc3)c3ccccc3c(-c3cccnc3)c2c1 [mPyBuAc]
- Inhibition of mitochondrial oxygen consumption in LtP [1]: even stronger inhibition
- Superoxide formation in LtP (CMH oxidation), in words [3]: most effective in boosting the superoxide production
